In data set [1] the test system is TGF-β1-induced fibronectin protein. Conditions: cited from earlier work.
Data set [2] has as its system TGF-β1-induced collagen Iα1 mRNA. The following applies: cited from earlier work.
For data set [3], the system named is TGF-β1-induced fibronectin mRNA. The following applies: cited from earlier work.
Data set [4] addresses T1, nodal type I receptor ALK7 (Homo sapiens, UniProt Q8NER5).
T1 sequence (Q8NER5 21-493): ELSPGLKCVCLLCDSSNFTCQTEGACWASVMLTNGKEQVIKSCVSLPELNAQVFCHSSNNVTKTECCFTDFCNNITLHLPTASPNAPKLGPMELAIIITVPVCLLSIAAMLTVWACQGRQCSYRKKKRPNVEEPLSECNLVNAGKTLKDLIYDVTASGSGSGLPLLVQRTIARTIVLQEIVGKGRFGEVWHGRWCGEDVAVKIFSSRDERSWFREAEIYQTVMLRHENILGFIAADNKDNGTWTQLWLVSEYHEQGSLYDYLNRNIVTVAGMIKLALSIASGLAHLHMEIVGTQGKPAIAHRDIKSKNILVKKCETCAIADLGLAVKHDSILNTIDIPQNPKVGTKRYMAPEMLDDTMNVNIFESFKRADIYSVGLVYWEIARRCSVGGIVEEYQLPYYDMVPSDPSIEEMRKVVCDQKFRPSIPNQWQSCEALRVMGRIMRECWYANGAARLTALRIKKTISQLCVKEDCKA
The following applies: cited from earlier work.

Data set [5] deals with TGF-β1-induced PAI-1 mRNA. Conditions: cited from earlier work.
The nature of data set [6]: TGF-β1 release from NP patches in PBS (Micro BCA). It is filed as physicochemical. The following applies: in vitro. As for the experimental part: Pericardial patches were covalently modified using NP loaded with TGF-β1. TGF-β1 (4 μg) was dissolved in PBS (200 μL) and added to chloroform (2 mL) containing carboxylated poly(lactic-coglycolic acid) (PLGA) (100 mg). The mixture was then added drop-wise to 5% polyvinyl alcohol (PVA) (4 mL) and sonicated three times to form NP. The NP were dispersed in 0.2% PVA solution (200 mL) to evaporate the solvent for 2 h while stirring (40 ng TGF-β1/mg NP, […]). Patches (7 mm×5 mm) were conjugated with the NP using ethyl (dimethylaminopropyl) carbodiimide/N-hydroxysuccinimide (EDC/NHS) chemistry, as discussed above. EDC (20 μmol/mL) and NHS (10 μmol/mL) were dissolved in MES solution (0.1 M; pH 5) for the conjugation. Carboxyl groups on the NP were activated using EDC (1 mL) for 30 min and substituted with NHS by adding NHS (1 mL) for 30 min. The solution pH was raised from 5 to 8 using NaOH (1 M). Patches were then placed into the activated NP suspension and incubated at 37° C. overnight. To assess TGF-β1 release from NP patches in vitro, the patches were incubated in PBS at 37° C. The supernatant was collected at the desired time points and used to quantify TGF-β1 using a Micro BCA Protein Assay Kit (Thermo Fisher Scientific).

What is called IC50 is the midpoint of a concentration-inhibition curve.

Consider `NC(=O)c1ccc(-c2nc(-c3ccc4c(c3)OCO4)c(-c3ccccn3)[nH]2)cc1` [SB 431542], for which the IC50 in data set [1] was 22 nM; in data set [2], 60 nM; in data set [3], 62 nM; in data set [5], 50 nM. In addition, the “inhibition of ALK7” value in data set [4] is on record as “inhibits”.
As to “TGF β1: polypeptide member of the transforming growth factor beta superfamily of cytokines”, in data set [6], the “duration of sustained release of TGF-β1” value is on record as 2-3 weeks, the “period in which cumulative release was highest (first days)” value is given as 5 days and the “time until which release slowly decreased” value came to 21 days.

The values are drawn from US10449269B2, “Particle conjugated prosthetic patches and methods of making and using thereof” (Yale University, priority 2016, dated 2019).
